Data as given in article PMC7026885, “Macrofilaricidal Benzimidazole–Benzoxaborole Hybrids as an Approach to the Treatment of River Blindness: Part 1. Amide Linked Analogs” (ACS Infectious Diseases, 2019).

Columns and labels:
B. malayi/pahangi worms = test: ex vivo B. malayi/pahangi assay; type: cell-based; settings: short (<7 days) exposure of worms
Brugia malayi = test: Adult Brugia malayi transplantation in vivo model in gerbils; settings: for adult worm reduction / animals with no worms: B. malayi, necropsy day 42, QD
Description: We characterized the in vitro ADME properties of 8a in preparation for evaluation of this compound in our primary in vivo model in gerbils. […] We were pleased to find that 8a was able to kill 100% of both male and female worms in the gerbil peritoneum when dosed subcutaneously at 100 mg/kg/day for 14 days as a suspension in a nonsolubilizing HEC/Tween vehicle. […] The subsequent assessment of the pharmacokinetics of 8a from these two dosing paradigms provided an interesting observation that we believe to be important in understanding the PK–PD requirements for achieving efficacy in this animal model. […] We had made the same observation in a positive control group using flubendazole at a subcutaneous dose of 10 mg/kg/day for 5 days in the nonsolubilizing HEC/Tween vehicle, namely, that plasma levels of flubendazole were maintained above the in vitro IC50 (4 nM) for over 42 days, consistent with data reported in the literature.[43] […] We next examined 8a in two additional in vivo models, the first where L3 B. pahangi larvae were injected into the peritoneum of gerbils and allowed to develop into adult worms[45] and a second where gerbils were naturally infected by the filarial nematode Litomosoides sigmodontis.[46],[47] In both of these models, 8a was administered subcutaneously at 100 mg/kg for 14 days or orally at 100 mg/kg for 28 days as a suspension. […] Additionally, when plasma obtained from treated animals at necropsy was analyzed for 8a, we observed an outcome similar to that observed in the adult implantation model, e.g., that measurable levels were present at this time point in the subcutaneous-dosed groups but not in the orally dosed groups, weeks after administration of the drug. In a final L. sigmodontis experiment with 8a, we dosed the compound subcutaneously at 300 mg/kg for 7 days as a suspension.
(§1) Plates were incubated at 37 °C in a 5% CO2 incubator for 6 days, then molting was assessed visually using an inverted microscope. Molting was determined in each well by counting the presence of fourth stage larvae (L4s) and empty casts of L3s.
(§2) The percent inhibition of molting was calculated based on the number of treated larvae that were able to molt in comparison to the number of control larvae that had successfully molted. IC50 values were calculated using GraphPad Prism v6.0
(§3) (http://www.graphpad.com). See Bullman et al., PLoS Negl. Trop.
(§4) Adult Brugia malayi transplantation in vivo model procedure.
(§5) Gerbils (Meriones unguiculatus) were infected by transplantation of 10 male and 10 female adult Brugia malayi into the peritoneal cavity. Gerbils were acclimated for 7 days prior to treatment. Animals were dosed based on their body weight prior to each dosing. Animals were administered their doses at the same time each day and receive standard rodent laboratory diet and water ad libitum. Gerbils were humanely euthanized at the conclusion of each study. Peritoneal counts of male and female adult B. malayi and visual condition of the peritoneum were recorded.
(§6) Brugia pahangi L3 injection in vivo model procedure 8.
(§7) Male gerbils (Meriones unguiculatus) approximately 6 weeks of age (50-60 g) were purchased from Charles Rivers (USA, Kingston K62 Gerbils) and infected by intraperitoneal injection with 200 Brugia pahangi third-stage larvae (L3) per animal
(§8) (Filariatech, Inc., Athens, GA). Gerbils were housed with no more than 5 animals per cage and maintained 9 months prior to treatment. All gerbils were dosed in accordance with their body weight determined prior to each dosing. Animals were […]

[1] = tested on: Onchocerca volvulus L3 larvae; test: Onchocerca volvulus L3 larval molting assay; type: cell-based; settings: L3 molting assay, Table 1, read-out: O. volvulus IC50
Description: The first three analogs from the benzimidazole 5-carboxylic acid, namely 7a (from 6-aminobenzoxaborole), 8a (from 6-aminomethyl-3,3-dimethylbenzoxaborole), and 8b (from 3-aminomethylbenzoxaborole), were prepared and tested in an Onchocerca volvulus L3 larval molting assay[34],[35] and a mammalian G2/M arrest assay[36] to evaluate antifilarial activity and selectivity, respectively (Table 1). O. volvulus is the causative agent of river blindness, and the L3 molting assay is the only widely available and reproducible assay of this filariid, the target of novel macrofilaricidal drugs.[34],[35] Other animal models (e.g., Brugia in gerbils) recapitulate aspects of lymphatic filariasis and are also used as surrogate screens for O. volvulus infections. Of the three compounds tested, 8a emerged as the most attractive compound on the basis of potency and selectivity.
as §1, §2, §3, §4, §5, §6, §7, §8

[2] = 100 mg/kg × 14 days, SC (suspension)
[3] = 100 mg/kg × 28 days, PO (suspension)
[4] = 150 mg/kg × 14 days, SC (solution)

Structure (SMILES) | killing of worms after short exposure (B. malayi/pahangi worms) | adult worm reduction (Brugia malayi; [2]) [%] | animals with no worms (Brugia malayi; [2]) [%] | adult worm reduction (Brugia malayi; [3]) [%] | animals with no worms (Brugia malayi; [3]) [%] | adult worm reduction (Brugia malayi; [4]) [%] | animals with no worms (Brugia malayi; [4]) [%] | in vivo efficacy (Brugia malayi; SC 150 mg/kg/day as a solution in DMSO/water vehicle) | kill of both male and female worms in the gerbil peritoneum (Brugia malayi; implanted adult B. malayi or B. pahangi, SC 100 mg/kg/day for 14 days, suspension in HEC/Tween vehicle) [%] | in vivo efficacy by the oral route (Brugia malayi; oral, 100 mg/kg/day for 28 days) | IC50 [1] [nM] | adult worm reduction (Brugia malayi; 10 mg/kg × 5 days, SC) [%/100%] | animals with no worms (Brugia malayi; 10 mg/kg × 5 days, SC) [%/100%]
COC(=O)Nc1nc2cc(C(=O)NCc3ccc4c(c3)B(O)OC4(C)C)ccc2[nH]1 [8a] | not effective in killing the worms | 100 | 87.5 | 12.5 | 0 | 83.3 | 50 | substantially reduced | 100 | not efficacious | 300 | – | –
COC(=O)Nc1nc2cc(C(=O)c3ccc(F)cc3)ccc2[nH]1 [compound 1, Flubendazole, reference compound] | not effective in killing the worms | – | – | – | – | – | – | – | – | – | 4 | 100 | 100
